Data on 1 compound can be found in patent US20220062448A1 (priority 2015, published 2022).

The subject of the assay is CD206+macrophages (MOs). In words: CD206 targeting assay in monocyte-derived CD206+ macrophages (uptake, killing, apoptosis). As to conditions: FIG. 17. Format: cell-based.

Procedure: CD206 targeting assays were conducted using both in vitro monocyte-derived CD206+macrophages (MOs) and ex vivo fresh Kaposi Sarcoma (KS) tumor tissue (provided by the AIDS and Cancer Specimen Resource [ACSR]). Tilmanocept-Cy 3 with/without a chemo-therapeutic agent (CTA) attached (tilmanocept-Cy3-CTA or tilmanocept-Cy3) interactions with cellular and tumor targets were tracked by flow cytometry and immuno-histochemistry to evaluate Cy3-tilmanocept uptake and targeting capability for delivery of drug into KS tumor cells and TAMs.

As for `COc1cccc2c1C(=O)c1c(O)c3c(c(O)c1C2=O)C[C@@](O)(C(=O)CO)C[C@@H]3O[C@H]1C[C@H](N)[C@H](O)[C@H](C)O1` [Docorubicin, doxorubicin], for the setting “Annexin levels”, the “toxicity to CD206 expressing macrophages” value is “no toxicity”. Also, where the note is “compared with tilmanocept-Cy3-CTA”, the “effect on cells (apoptosis, cell loss)” value was “less effect”.
